Laboratory results: patent US20090176759A1, “LEUKEMIC STEM CELL ABLATION” (ChemGenex Pharmaceuticals, Inc., priority 2007, published 2009)

Key:
[1] = test system: leukemia stem cells (GFP+Lin− c-Kit+Sca-1+); test: Bone marrow cells from CML mice cultured in vitro with HHT, FACS analysis of leukemia stem cells; assay type: cell-based
Description: FIG. 5A is a FACS analysis of bone marrow cells isolated from mice with BCR-ABL-WT-induced CML were cultured in vitro (5×10^6 cells/6 cm tissue culture plate) in the presence of different doses of HHT for 6 days (changing the stem cell medium containing placebo or HHT at day 3) followed by FACS analysis of leukemia stem cells (GFP+Lin− c-Kit+Sca-1+). FIG. 5B depicts bar graphs for the leukemic cells and leukemic stem cells. […] Bone marrow cells were isolated from the treated CML mice, and leukemia stem cells were analyzed by FACS. The numbers of cells represent total leukemia stem cells in average from femur and tibia of each treated CML mouse.
FIG. 5A is a FACS analysis of bone marrow cells isolated from mice with BCR-ABL-WT-induced CML that were cultured in vitro (5×10^6 cells/6 cm tissue culture plate) in the presence of different doses of HHT for 6 days (changing the stem cell medium containing placebo or HHT at day 3) followed by FACS analysis of leukemia stem cells (GFP+ Lin− c-Kit+Sca-1+). FIG. 5B depicts bar graphs for the leukemic cells and leukemic stem cells.

IM-resistant T315I+CML = test: Multicenter open-label phase 2/3 study of subcutaneous omacetaxine, efficacy; assay type: in vivo, human
Excerpt: As used herein, a cytological response to treatment with cephalotaxine and/or TKI is a response that occurs in the bone marrow rather than just in the peripheral blood. There are at least three cytological responses: (1) a cytogenetic response (CR); (2) a major cytogenetic response (MCR); and a complete cytogenetic response (CCR). Determination of such responses is based on the measurement of the number of peripheral blood and/or bone marrow cells having a marker that is associated with a particular leukemia. Such markers include cell surface antigens, aberrant proteins, and genetic modifications. A cytogenetic response occurs if the number or percentage of cells with such a marker decreases during treatment. A major cytogenetic response occurs if the number or percentage of such cells falls below 35%. A complete cytogenetic response occurs when no cells containing the marker are detected. For example, CML is characterized by the Ph+ chromosome. A cytogenetic response has occurred if the number of Ph+ chromosomes decreases at all during treatment. If the Ph+ percentage drops to 35% or less, it is considered a major cytogenetic response; 0% Ph+ is a complete cytogenetic response.
As used herein, a hematological response occurs when there is a change in the white blood cell count of a patient following treatment with cephalotaxine and/or TKI. The change in white blood cell count can be in the peripheral blood and the bone marrow although the change may be observed only in the peripheral blood. The response can be a partial reduction in white cell count or complete reduction to normal values (e.g. 10,000-12,000 cells […].)
This example summarizes human clinical trials using HHT to treat patients with IM-resistant T315I+CML.
A multicenter open-label phase 2/3 study evaluating safety and efficacy of omacetaxine administered subcutaneously (SC) in patients with IM-resistant T315I+CML in all phases of the disease is being conducted.
Induction phase—1.25 mg/m2 twice daily SC for 14 consecutive days every 28 days until complete hematologic response (CHR) or hematologic improvement has been achieved.
Maintenance therapy—1.25 mg/m2 twice daily SC for 7 days every 28 days for up to 24 months.
Doses were adjusted to maintain adequate WBC and platelet control by increasing or decreasing the number of days of administration of omacetaxine.

[2] = test system: T315I mutated BCR-ABL transcripts; test: Peripheral blood BCR-ABL transcript levels by qRT-PCR and KD mutation analyses during omacetaxine therapy; assay type: in vivo, human
Description: Presence of T315I is confirmed at study entry at one of two reference labs (University of Texas MD Anderson Cancer Center or University of Heidelberg, Medizinische Fakultat Mannheim).
Peripheral blood BCR-ABL transcript levels are determined during omacetaxine therapy by quantitative real-time polymerase chain reaction (qRT-PCR) and BCR-ABL KD mutation analyses.

[3] = test system: BCR-ABL-T315I-induced CML; test: Mice with BCR-ABL-T315I-induced CML treated with HHT; assay type: in vivo
Description: In FIG. 3A, the number of circulating leukemic cells (calculated as percentage of Gr-1+GFP+ cells×white blood cell count) in mice with BCR-ABL-T315I-induced CML treated with placebo or HHT was determined on day 14 after transplantation.
Antibodies for Western Blot analysis against c-ABL, Mcl-1 and β-actin were purchased from Santa Cruz Biothechology (Santa Cruz, Calif.). Protein lysates were prepared by lysing cells in RIPA buffer and immunoprecipitation. The retroviral vector MSCV-IRES-eGFP carrying the BCR-ABL cDNA was used to make virus stock for bone marrow transduction/transplantation. Four- to 10-week-old wild-type BABL/c or C57BL/6 (The Jackson Laboratory) and homozygous SRC triple gene knockout (Lyn−/−Hck−/−Fgr−/−) mice were used for leukemogenesis experiments. HHT (ChemGenex Pharmaceuticals, Inc, CA) was dissolved in accompanying diluent to a stock concentration of 1 mg/ml. Further dilutions were made to working concentrations using media or water.
The number of circulating leukemic cells (calculated as percentage of Gr-1+GFP+ cells×white blood cell count) in mice with BCR-ABL-T315I-induced CML treated with placebo or HHT (0.5 mg/kg) was determined on day 14 after transplantation.

[4] = in vitro, different doses of HHT for 6 days
[5] = Accelerated Phase, N = 5, median (range)
[6] = Chronic Phase, N = 20, median (range)

For `COC(=O)C[C@](O)(CCCC(C)(C)O)C(=O)O[C@@H]1C(OC)=C[C@]23CCCN2CCc2cc4c(cc2[C@H]13)OCO4` [HHT, Homoharringtonine], the “proliferation of BCR-ABL-expressing leukemic stem cells” value [1] was “inhibits the proliferation”, the “number of leukemic cells” value [1, 4] was “reduces” and the “number of leukemic stem cells” value [1, 4] was “reduces”. For the same compound, the “Median Duration of Response, Cytogenetic Response Minimal” value (IM-resistant T315I+CML; Accelerated Phase, N = 5) was 2.3 Months, the “Median Duration of Response, Hematologic Response HI” value (IM-resistant T315I+CML; Accelerated Phase, N = 5) was 2.8 Months and the “Median Duration of Response, Hematologic Response CHR” value (IM-resistant T315I+CML; [5]) was 9.6 (8.3-10.9+) Months. The “Median Duration of Response, Hematologic Response RCP” value (IM-resistant T315I+CML; [5]) was 2.0 (2.0-2.0+) Months, the “Complete Hematologic Response (CHR)” value (IM-resistant T315I+CML; Accelerated Phase, N = 11) was 2 (18) Number (%) and the “Cytogenetic Response, Minimal” value (IM-resistant T315I+CML; Accelerated Phase, N = 11) was 1 (9) Number (%). For the same compound, the “Cytogenetic Response, Overall” value (IM-resistant T315I+CML; Accelerated Phase, N = 11) was 1 (9) Number (%), the “Hematologic Improvement (HI)” value (IM-resistant T315I+CML; Accelerated Phase, N = 11) was 1 (9) Number (%) and the “Hematologic Response, Overall” value (IM-resistant T315I+CML; Accelerated Phase, N = 11) was 5 (45) Number (%). The “Return to Chronic Phase (RCP)” value (IM-resistant T315I+CML; Accelerated Phase, N = 11) was 2 (18) Number (%), the “Median Duration of Response, Hematologic Response RCP” value (IM-resistant T315I+CML; Blast Phase, N = 1) was 3.4 Months and the “Hematologic Response, Overall” value (IM-resistant T315I+CML; Blast Phase, N = 8) was 1 (13) Number (%). For the same compound, the “Return to Chronic Phase (RCP)” value (IM-resistant T315I+CML; Blast Phase, N = 8) was 1 (13) Number (%), the “Median Duration of Response, Cytogenetic Response Partial” value (IM-resistant T315I+CML; Chronic Phase, N = 20) was 4.2 Months and the “Median Duration of Response, Cytogenetic Response Complete” value (IM-resistant T315I+CML; [6]) was 4.8 (0.3-9.7+) Months. The “Median Duration of Response, Cytogenetic Response Minimal” value (IM-resistant T315I+CML; [6]) was 4.0 (3.9-20.8+) Months, the “Median Duration of Response, Hematologic Response CHR” value (IM-resistant T315I+CML; [6]) was 11.5 (3.5-25.4+) Months and the “Complete Hematologic Response (CHR)” value (IM-resistant T315I+CML; Chronic Phase, N = 25) was 20 (80) Number (%). For the same compound, the “Cytogenetic Response, Complete” value (IM-resistant T315I+CML; Chronic Phase, N = 25) was 4 (16) Number (%), the “Cytogenetic Response, Minimal” value (IM-resistant T315I+CML; Chronic Phase, N = 25) was 2 (8) Number (%) and the “Cytogenetic Response, Overall” value (IM-resistant T315I+CML; Chronic Phase, N = 25) was 7 (28) Number (%). The “Cytogenetic Response, Partial” value (IM-resistant T315I+CML; Chronic Phase, N = 25) was 1 (4) Number (%), the “Hematologic Response, Overall” value (IM-resistant T315I+CML; Chronic Phase, N = 25) was 20 (80) Number (%) and the “Molecular Response, Major” value (IM-resistant T315I+CML; Chronic Phase, N = 25) was 2 (8) Number (%). For the same compound, the “Cytogenetic Response, Major*” value (IM-resistant T315I+CML; Chronic Phase, N = 25, one complete and one partial cytogenetic response are unconfirmed) was 5 (20) Number (%), the progression free survival (IM-resistant T315I+CML; accelerated phase (AP), after one year) was 25% and the progression free survival (IM-resistant T315I+CML; blast phase (BP), after 6 months) was 44%. For the same compound, the progression free survival (IM-resistant T315I+CML; chronic phase (CP), after 1 year) was 80%, the progression free survival (IM-resistant T315I+CML; chronic phase (CP), after 2 years) was 70% and the “duration of complete hematologic and cytogenetic responses” value (IM-resistant T315I+CML; in vivo) was “up to one year”. The “evaluable patients with T315I mutated BCR-ABL transcripts reduced below the detection level” value ([2]; 5/13 evaluable patients) was 38%, the T315I mutated clone ([2]; CP patients (FIG. 8)) was “rapidly and substantially reduced” and the “patients in whom the T315I clone is reduced to below the limits of detection” value ([2]; chronic phase patients (FIG. 8)) was 64%. The T315I clone ([2]; heavily-pretreated patients with IM-resistant T315I+CML) was “complete elimination of the T315I clone in a number of heavily-pretreated patients”, the survival ([3]; BCR-ABL-T315I CML mice, HHT vs placebo) was “prolonged survival” and the “number of circulating leukemic cells (percentage of Gr-1+GFP+ cells×white blood cell count)” value ([3]; HHT 0.5 mg/kg, day 14 after transplantation, vs placebo) was “significantly reduced”.
